According to PubChem BioAssay (NCI):
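A five-concentration, 48-hour dose response in 96-well plates underlies each endpoint, interpolated linearly between surrounding concentrations. Here, GI50 denotes the concentration required for 50% inhibition of growth. The concentration for full growth arrest is given as TGI.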

Legend:
Test in all cases: NCI-60 cell line screen, 48 h
[1] = tested on: 786-0 renal
[2] = tested on: A498 renal
[3] = tested on: A549 NSCLC
[4] = tested on: ACHN renal
[5] = tested on: BT-549 breast
[6] = tested on: CAKI-1 renal
[7] = tested on: CCRF-CEM leukemia
[8] = tested on: COLO 205 colon
[9] = tested on: DU-145 prostate
[10] = tested on: EKVX NSCLC
[11] = tested on: HCC-2998 colon
[12] = tested on: HCT-116 colon
[13] = tested on: HCT-15 colon
[14] = tested on: HL-60(TB) leukemia
[15] = tested on: HOP-62 NSCLC
[16] = tested on: HOP-92 NSCLC
[17] = tested on: HS 578T breast
[18] = tested on: HT29 colon
[19] = tested on: IGROV1 ovarian
[20] = tested on: K-562 leukemia
[21] = tested on: KM12 colon
[22] = tested on: LOX IMVI melanoma
[23] = tested on: M14 melanoma
[24] = tested on: MALME-3M melanoma
[25] = tested on: MCF7 breast
[26] = tested on: MDA-MB-231 breast
[27] = tested on: MDA-MB-435
[28] = tested on: MOLT-4 leukemia
[29] = tested on: NCI-H226 lung
[30] = tested on: NCI-H23 lung
[31] = tested on: NCI-H460 lung
[32] = tested on: NCI-H522 lung
[33] = tested on: NCI/ADR-RES ovarian
[34] = tested on: OVCAR-3 ovarian
[35] = tested on: OVCAR-4 ovarian
[36] = tested on: OVCAR-5 ovarian
[37] = tested on: OVCAR-8 ovarian
[38] = tested on: PC-3 prostate
[39] = tested on: RPMI-8226 leukemia
[40] = tested on: RXF 393 renal
[41] = tested on: SF-268 CNS
[42] = tested on: SF-295 CNS
[43] = tested on: SF-539 CNS
[44] = tested on: SK-MEL-2 melanoma
[45] = tested on: SK-MEL-28 melanoma
[46] = tested on: SK-MEL-5 melanoma
[47] = tested on: SK-OV-3 ovarian
[48] = tested on: SN12C renal
[49] = tested on: SNB-19 CNS
[50] = tested on: SNB-75 CNS
[51] = tested on: SR leukemia
[52] = tested on: SW-620 colon
[53] = tested on: T-47D breast
[54] = tested on: TK-10 renal
[55] = tested on: U251 CNS
[56] = tested on: UACC-257 melanoma
[57] = tested on: UACC-62 melanoma
[58] = tested on: UO-31 renal

CC(C)N1CCN(Cc2ccc3c(NNC(=O)c4ccccc4)nc4cc(F)ccc4n23)CC1
GI50 [1]: 0.323 µM
TGI [1]: 6.01 µM
GI50 [2]: 0.564 µM
TGI [2]: 4.12 µM
GI50 [3]: 0.465 µM
TGI [3]: 8.47 µM
GI50 [4]: 0.0902 µM
TGI [4]: 12 µM
GI50 [5]: 0.629 µM
TGI [5]: 12.1 µM
GI50 [6]: 0.249 µM
TGI [6]: 6.26 µM
GI50 [7]: 0.146 µM
TGI [7]: 4.09 µM
GI50 [8]: 0.273 µM
TGI [8]: 3.47 µM
GI50 [9]: 0.629 µM
TGI [9]: 13.3 µM
GI50 [10]: 0.172 µM
TGI [10]: 6.79 µM
GI50 [11]: 0.699 µM
TGI [11]: 6.45 µM
GI50 [12]: 0.238 µM
TGI [12]: 1.45 µM
GI50 [13]: 0.0563 µM
TGI [13]: 3.91 µM
GI50 [14]: 0.322 µM
TGI [14]: 1.43 µM
GI50 [15]: 0.176 µM
TGI [15]: 13.7 µM
GI50 [16]: 0.678 µM
TGI [16]: 15.3 µM
GI50 [17]: 4.23 µM
TGI [17]: 26.9 µM
GI50 [18]: 0.673 µM
TGI [18]: 7.46 µM
GI50 [19]: 0.406 µM
TGI [19]: 14.1 µM
GI50 [20]: 0.379 µM
TGI [20]: 3.87 µM
GI50 [21]: 0.397 µM
TGI [21]: 11 µM
GI50 [22]: 0.198 µM
TGI [22]: 1.54 µM
GI50 [23]: 0.23 µM
TGI [23]: 3.28 µM
GI50 [24]: 0.575 µM
TGI [24]: 2.4 µM
GI50 [25]: 0.341 µM
TGI [25]: 1.48 µM
GI50 [26]: 0.497 µM
TGI [26]: 2.48 µM
GI50 [27]: 0.655 µM
TGI [27]: 15.1 µM
GI50 [28]: 0.24 µM
TGI [28]: 2.04 µM
GI50 [29]: 0.534 µM
TGI [29]: 8.18 µM
GI50 [30]: 0.93 µM
TGI [30]: 8.94 µM
GI50 [31]: 0.128 µM
TGI [31]: 1.4 µM
GI50 [32]: 0.532 µM
TGI [32]: 5.05 µM
GI50 [33]: 0.237 µM
TGI [33]: 4.53 µM
GI50 [34]: 0.289 µM
TGI [34]: 6.79 µM
GI50 [35]: 0.293 µM
TGI [35]: 7.71 µM
GI50 [36]: 0.674 µM
TGI [36]: 6.83 µM
GI50 [37]: 0.381 µM
TGI [37]: 27.4 µM
GI50 [38]: 0.402 µM
TGI [38]: 12.7 µM
GI50 [39]: 0.476 µM
TGI [39]: 3.18 µM
GI50 [40]: 0.792 µM
TGI [40]: 8.87 µM
GI50 [41]: 0.355 µM
TGI [41]: 12.7 µM
GI50 [42]: 0.277 µM
TGI [42]: 1.69 µM
GI50 [43]: 0.403 µM
TGI [43]: 1.82 µM
GI50 [44]: 2.78 µM
TGI [44]: 20.8 µM
GI50 [45]: 0.599 µM
TGI [45]: 4.58 µM
GI50 [46]: 0.921 µM
TGI [46]: 3.11 µM
GI50 [47]: 0.338 µM
TGI [47]: 15.3 µM
GI50 [48]: 0.529 µM
TGI [48]: 12.8 µM
GI50 [49]: 0.537 µM
TGI [49]: 8.07 µM
GI50 [50]: 0.451 µM
TGI [50]: 7.24 µM
GI50 [51]: 0.185 µM
TGI [51]: 6.83 µM
GI50 [52]: 0.463 µM
TGI [52]: 2.12 µM
GI50 [53]: 0.419 µM
TGI [53]: 11.7 µM
GI50 [54]: 0.216 µM
TGI [54]: 23.9 µM
GI50 [55]: 0.296 µM
TGI [55]: 2.01 µM
GI50 [56]: 0.81 µM
TGI [56]: 11.9 µM
GI50 [57]: 0.388 µM
TGI [57]: 2.67 µM
GI50 [58]: 0.0688 µM
TGI [58]: 3.14 µM

CCN1C(=O)CCCc2c1ccc(Nc1ncc(Cl)c(NC3[C@@H](C(N)=O)[C@@H]4C=C[C@H]3C4)n1)c2OC (stereo not given in full)
GI50 [1]: 1.87 µM
TGI [1]: 9.12 µM
GI50 [2]: 0.529 µM
TGI [2]: 2.65 µM
GI50 [3]: 0.741 µM
TGI [3]: 5.88 µM
GI50 [4]: 2.07 µM
TGI [4]: > 30.2 µM
GI50 [5]: 3.61 µM
TGI [5]: 17.4 µM
GI50 [6]: 0.919 µM
TGI [6]: 4.48 µM
GI50 [7]: 0.607 µM
TGI [7]: 17.9 µM
GI50 [8]: 0.633 µM
TGI [8]: 2.48 µM
GI50 [9]: 1.81 µM
TGI [9]: 14.6 µM
GI50 [11]: 1.69 µM
TGI [11]: 3.57 µM
GI50 [12]: 0.805 µM
TGI [12]: 7.43 µM
GI50 [13]: 0.563 µM
TGI [13]: > 20.5 µM
GI50 [14]: 0.667 µM
TGI [14]: 5.46 µM
GI50 [15]: 2.1 µM
TGI [15]: 13.7 µM
GI50 [16]: 0.276 µM
TGI [16]: 2.26 µM
GI50 [17]: 1.88 µM
TGI [17]: 8.26 µM
GI50 [18]: 0.791 µM
TGI [18]: 9.06 µM
GI50 [19]: 1.46 µM
TGI [19]: 3.96 µM
GI50 [20]: 2.16 µM
TGI [20]: > 74.6 µM
GI50 [21]: 1.87 µM
TGI [21]: 13.9 µM
GI50 [22]: 0.774 µM
TGI [22]: 2.48 µM
GI50 [23]: 0.77 µM
TGI [23]: 2.32 µM
GI50 [24]: 0.998 µM
TGI [24]: 3.4 µM
GI50 [25]: 0.618 µM
TGI [25]: 6.7 µM
GI50 [26]: 1.95 µM
TGI [26]: 14.4 µM
GI50 [27]: 0.917 µM
TGI [27]: 9.85 µM
GI50 [28]: 1.41 µM
TGI [28]: 11.3 µM
GI50 [29]: 1.56 µM
TGI [29]: 12.7 µM
GI50 [30]: 1.56 µM
TGI [30]: 9.47 µM
GI50 [31]: 0.661 µM
TGI [31]: 13.4 µM
GI50 [32]: 1.16 µM
TGI [32]: 6.13 µM
GI50 [33]: 2.35 µM
TGI [33]: > 100 µM
GI50 [34]: 2.14 µM
TGI [34]: 10.6 µM
GI50 [35]: 1.94 µM
TGI [35]: > 41.3 µM
GI50 [36]: 1.34 µM
TGI [36]: > 22.2 µM
GI50 [37]: 1.41 µM
TGI [37]: 32.2 µM
GI50 [38]: 1.49 µM
TGI [38]: 18 µM
GI50 [39]: 0.976 µM
TGI [39]: 4.26 µM
GI50 [40]: 1.22 µM
TGI [40]: 3.38 µM
GI50 [41]: 2.01 µM
TGI [41]: 14.3 µM
GI50 [42]: 1.45 µM
TGI [42]: 13.3 µM
GI50 [43]: 1.23 µM
TGI [43]: 8.94 µM
GI50 [44]: 1.44 µM
TGI [44]: 3.79 µM
GI50 [45]: 1.56 µM
TGI [45]: 6.96 µM
GI50 [46]: 1.45 µM
TGI [46]: 4.82 µM
GI50 [47]: 2.39 µM
TGI [47]: 7.74 µM
GI50 [48]: 2.53 µM
TGI [48]: 57.8 µM
GI50 [49]: 1.94 µM
TGI [49]: 14 µM
GI50 [50]: 0.619 µM
TGI [50]: 6.23 µM
GI50 [51]: 0.0556 µM
TGI [51]: 19.7 µM
GI50 [52]: 0.564 µM
TGI [52]: 3.48 µM
GI50 [53]: 1.91 µM
TGI [53]: 14.3 µM
GI50 [54]: 0.897 µM
TGI [54]: 4.38 µM
GI50 [55]: 1.12 µM
TGI [55]: 13.9 µM
GI50 [56]: 0.839 µM
TGI [56]: 4.34 µM
GI50 [57]: 0.933 µM
TGI [57]: 2.59 µM
GI50 [58]: 0.809 µM
TGI [58]: 4.07 µM
